{"source": "patent US12351580B2", "about": "“NLRP3 modulators” (Innate Tumor Immunity, Inc., priority 2017, dated 2025)", "data": [{"biological_target": "T1, TLR7 (Homo sapiens, UniProt Q9NYK1)", "T1 construct": "host or cells: HEK-Blue cells (human HEK) co-expressing TLR7 and an NF-kB/AP1-inducible SEAP reporter", "T1 sequence (Q9NYK1 27-1049)": "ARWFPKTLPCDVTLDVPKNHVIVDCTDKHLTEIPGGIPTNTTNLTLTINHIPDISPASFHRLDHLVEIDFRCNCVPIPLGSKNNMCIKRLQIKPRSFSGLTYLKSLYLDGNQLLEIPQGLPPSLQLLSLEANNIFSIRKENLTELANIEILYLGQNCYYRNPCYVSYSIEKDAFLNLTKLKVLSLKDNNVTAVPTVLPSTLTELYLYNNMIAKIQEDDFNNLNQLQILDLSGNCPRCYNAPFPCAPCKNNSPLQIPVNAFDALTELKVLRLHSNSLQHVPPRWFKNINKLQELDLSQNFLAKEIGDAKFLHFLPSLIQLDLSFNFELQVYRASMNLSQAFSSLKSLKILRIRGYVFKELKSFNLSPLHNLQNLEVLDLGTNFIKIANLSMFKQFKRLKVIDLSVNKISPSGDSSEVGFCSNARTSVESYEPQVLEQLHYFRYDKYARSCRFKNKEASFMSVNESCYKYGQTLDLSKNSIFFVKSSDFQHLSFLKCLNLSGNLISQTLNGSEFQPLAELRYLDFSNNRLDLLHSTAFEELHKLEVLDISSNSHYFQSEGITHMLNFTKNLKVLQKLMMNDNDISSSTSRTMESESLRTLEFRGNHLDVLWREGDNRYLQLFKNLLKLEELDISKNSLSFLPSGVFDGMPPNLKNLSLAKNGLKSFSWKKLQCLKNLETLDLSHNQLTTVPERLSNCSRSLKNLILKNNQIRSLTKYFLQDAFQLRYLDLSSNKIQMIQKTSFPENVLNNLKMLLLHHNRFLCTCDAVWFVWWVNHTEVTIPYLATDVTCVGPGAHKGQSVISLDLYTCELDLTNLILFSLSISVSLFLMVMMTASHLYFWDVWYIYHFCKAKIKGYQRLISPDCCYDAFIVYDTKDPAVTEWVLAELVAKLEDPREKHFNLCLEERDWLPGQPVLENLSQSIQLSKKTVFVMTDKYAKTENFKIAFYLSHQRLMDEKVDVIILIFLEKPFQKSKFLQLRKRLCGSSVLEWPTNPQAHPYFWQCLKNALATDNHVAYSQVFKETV", "assay": "In vitro human TLR7 binding reporter assay (HEK-Blue, NF-kB/AP1-inducible SEAP)", "type": "cell-based", "conditions": "activity range symbols", "outline": "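Reporter cells are plated at 15,000 per well and rested 24 h. Next day, test compounds or DMSO are dispensed, followed by 18 h incubation at 37 °C, 5% CO2.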", "units": {"EC50": "µM"}, "values": [{"smiles": "Nc1nc2cc(-c3ccccc3F)ccc2c2[nH]c(CN3CCCC3=O)nc12", "note": "[Compound 284, 1-[[4-amino-7-(2-fluorophenyl)-1H-imidazo[4,5-c]quinolin-2-yl]methyl]pyrrolidin-2-one]", "EC50": "> 100"}, {"smiles": "CCN(Cc1nc2c(N)nc3ccccc3c2n1CCCNC(=O)OC(C)(C)C)C(C)=O", "note": "[Compound 191]", "EC50": "> 100"}, {"smiles": "CCN(Cc1nc2c(N)nc3cc(Br)ccc3c2n1CCCC(=O)N1CCN(C)CC1)C(C)=O", "note": "[Compound 209]", "EC50": "> 100"}, {"smiles": "CCNCc1nc2c(N)nc3cc(C(F)(F)F)ccc3c2n1CCCC(=O)OC", "note": "[Compound 227]", "EC50": "20 to 100"}, {"smiles": "CC(=O)NCc1nc2c(N)nc3ccccc3c2[nH]1", "note": "[Compound 233]", "EC50": "1 to 20"}, {"smiles": "CCN(Cc1nc2c(N)nc3cc(-n4cccn4)ccc3c2[nH]1)C(C)=O", "note": "[Compound 180, N-[(4-amino-7-pyrazol-1-yl-1H-imidazo[4,5-c]quinolin-2-yl)methyl]-N-ethylacetamide]", "EC50": "> 100"}, {"smiles": "CCN(Cc1nc2c(N)nc3cc(-c4cc[nH]n4)ccc3c2[nH]1)C(=O)N(C)C", "note": "[Compound 110, 1-((4-Amino-7-(1H-pyrazol-3-yl)-1H-imidazo[4,5-c]quinolin-2-yl)methyl)-1-ethyl-3,3-dimethylurea]", "EC50": "> 100"}, {"smiles": "CCN(Cc1nc2c(N)nc3cc(Br)ccc3c2[nH]1)C(C)=O", "note": "[Compound 177]", "EC50": "> 100"}, {"smiles": "CC(=O)N(C)Cc1nc2c(N)nc3ccccc3c2[nH]1", "note": "[Compound 187]", "EC50": "1 to 20"}, {"smiles": "Cc1ccn(-c2ccc3c(c2)nc(N)c2nc(CN4CCCC4=O)[nH]c23)n1", "note": "[Compound 301, 1-[[4-amino-7-(3-methylpyrazol-1-yl)-1H-imidazo[4,5-c]quinolin-2-yl]methyl]pyrrolidin-2-one]", "EC50": "> 100"}, {"smiles": "COc1ccccc1-c1ccc2c(c1)nc(N)c1nc(CN3CCCC3=O)[nH]c12", "note": "[Compound 283, 1-[[4-amino-7-(2-methoxyphenyl)-1H-imidazo[4,5-c]quinolin-2-yl]methyl]pyrrolidin-2-one]", "EC50": "> 100"}, {"smiles": "CCN(Cc1nc2c(N)nc3ccc(-n4cccn4)cc3c2[nH]1)C(C)=O", "note": "[Compound 207]", "EC50": "> 100"}, {"smiles": "CCN(Cc1nc2c(N)nc3cc(C(F)(F)F)ccc3c2n1CCCC(=O)NC)C(=O)OC(C)(C)C", "note": "[Compound 226]", "EC50": "> 100"}, {"smiles": "CCN(Cc1nc2c(N)nc3cc(-c4cc[nH]n4)ccc3c2[nH]1)C(=O)OC(C)(C)C", "note": "[Compound 109, tert-Butyl ((4-amino-7-(1H-pyrazol-3-yl)-1H-imidazo[4,5-c]quinolin-2-yl)methyl)(ethyl)carbamate]", "EC50": "> 100"}, {"smiles": "Nc1nc2cc(C(F)(F)F)ccc2c2[nH]c(CN3CCCC3=O)nc12", "note": "[Compound 163]", "EC50": "20 to 100"}, {"smiles": "CCN(Cc1nc2c(N)nc3cc(Cl)ccc3c2n1CCCC(=O)N1CCN(C)CC1)C(C)=O", "note": "[Compound 221]", "EC50": "> 100"}, {"smiles": "Nc1nc2cc(-c3ccccc3)ccc2c2[nH]c(CN3CCCC3=O)nc12", "note": "[Compound 280, 1-[(4-amino-7-phenyl-1H-imidazo[4,5-c]quinolin-2-yl)methyl]pyrrolidin-2-one]", "EC50": "> 100"}, {"smiles": "CCNCc1nc2c(N)nc3cc(Br)ccc3c2[nH]1", "note": "[Compound 225]", "EC50": "> 100"}, {"smiles": "CCN(Cc1nc2c(N)nc3cc(-c4cccnc4F)ccc3c2[nH]1)C(C)=O", "note": "[Compound 175, N-[[4-amino-7-(2-fluoropyridin-3-yl)-1H-imidazo[4,5-c]quinolin-2-yl]methyl]-N-ethylacetamide]", "EC50": "> 100"}, {"smiles": "CCN(Cc1nc2c(N)nc3ccc(Br)cc3c2[nH]1)C(=O)OC", "note": "[Compound 200]", "EC50": "> 100"}, {"smiles": "Cc1cccc(-c2ccc3c(c2)nc(N)c2nc(CN4CCCC4=O)[nH]c23)c1", "note": "[Compound 286, 1-[[4-amino-7-(3-methylphenyl)-1H-imidazo[4,5-c]quinolin-2-yl]methyl]pyrrolidin-2-one]", "EC50": "> 100"}, {"smiles": "COC(=O)CCCn1c(CN2CCCC2=O)nc2c(N)nc3cc(Cl)ccc3c21", "note": "[Compound 216]", "EC50": "> 100"}, {"smiles": "CCN(Cc1nc2c(N)nc3cc(Cl)ccc3c2n1CCCC(=O)N1CCOCC1)C(C)=O", "note": "[Compound 220]", "EC50": "> 100"}, {"smiles": "CCN(Cc1nc2c(N)nc3cc(C4CCCC4)ccc3c2[nH]1)C(C)=O", "note": "[Compound 173, N-[(4-amino-7-cyclopentyl-1H-imidazo[4,5-c]quinolin-2-yl)methyl]-N-ethylacetamide]", "EC50": "> 100"}, {"smiles": "CCN(Cc1nc2c(N)nc3cc(-c4ccccc4)ccc3c2[nH]1)C(C)=O", "note": "[Compound 165, N-[(4-amino-7-phenyl-1H-imidazo[4,5-c]quinolin-2-yl)methyl]-N-ethylacetamide]", "EC50": "> 100"}, {"smiles": "CCN(Cc1nc2c(N)nc3cc(Cl)ccc3c2n1CCCC(=O)NC)C(C)=O", "note": "[Compound 217]", "EC50": "> 100"}, {"smiles": "Nc1nc2cc(-n3cccn3)ccc2c2[nH]c(CN3CC(c4ccccc4)CC3=O)nc12", "note": "(stereo not drawn) [Compound 103]", "EC50": "> 100"}, {"smiles": "Nc1nc2cc(-c3cccc(Cl)c3)ccc2c2[nH]c(CN3CCCC3=O)nc12", "note": "[Compound 285, 1-[[4-amino-7-(3-chlorophenyl)-1H-imidazo[4,5-c]quinolin-2-yl]methyl]pyrrolidin-2-one]", "EC50": "> 100"}, {"smiles": "CCN(Cc1nc2c(N)nc3cc(C(C)C)ccc3c2[nH]1)C(C)=O", "note": "[Compound 170, N-[(4-amino-7-propan-2-yl-1H-imidazo[4,5-c]quinolin-2-yl)methyl]-N-ethylacetamide]", "EC50": "20 to 100"}, {"smiles": "CCN(Cc1nc2c(N)nc3cc(-c4cc(C)nn4C)ccc3c2[nH]1)C(C)=O", "note": "[Compound 168, N-[[4-amino-7-(2,5-dimethylpyrazol-3-yl)-1H-imidazo[4,5-c]quinolin-2-yl]methyl]-N-ethylacetamide]", "EC50": "> 100"}, {"smiles": "CCN(Cc1nc2c(N)nc3cc(-c4cccnc4)ccc3c2[nH]1)C(C)=O", "note": "[Compound 166, N-[(4-amino-7-pyridin-3-yl-1H-imidazo[4,5-c]quinolin-2-yl)methyl]-N-ethylacetamide]", "EC50": "> 100"}, {"smiles": "CCCc1ccc2c(c1)nc(N)c1nc(CN(CC)C(C)=O)[nH]c12", "note": "[Compound 172, N-[(4-amino-7-propyl-1H-imidazo[4,5-c]quinolin-2-yl)methyl]-N-ethylacetamide]", "EC50": "1 to 20"}, {"smiles": "Nc1nc2cc(-c3cccc(F)c3)ccc2c2[nH]c(CN3CCCC3=O)nc12", "note": "[Compound 289, 1-[[4-amino-7-(3-fluorophenyl)-1H-imidazo[4,5-c]quinolin-2-yl]methyl]pyrrolidin-2-one]", "EC50": "> 100"}]}]}
